Results from patent US20210163976A1, “GENETICALLY ALTERED PLANTS EXPRESSING HETEROLOGOUS RECEPTORS THAT RECOGNIZE LIPO-CHITOOLIGOSACCHARIDES” (Aarhus Universitet, priority 2018, published 2021).
Residue numbers refer to the chain shown, from its start. Names and notes keep the numbering of the source. “Also recorded” adds a separate entry of the source.

T1: Medicago NFP ectodomain (NFP-ECD, WT) (Medicago truncatula, UniProt Q0GXS4)
T1 construct: The Medicago truncatula NFP ectodomain (residues 28-246) was codon-optimized; AcMNPV gp67 signal peptide (replaces native signal peptide 1-27) (N); made in house; host or cells: Sf9 (Spodoptera frugiperda), baculovirus, secreted into medium
T1 sequence (Q0GXS4 28-246): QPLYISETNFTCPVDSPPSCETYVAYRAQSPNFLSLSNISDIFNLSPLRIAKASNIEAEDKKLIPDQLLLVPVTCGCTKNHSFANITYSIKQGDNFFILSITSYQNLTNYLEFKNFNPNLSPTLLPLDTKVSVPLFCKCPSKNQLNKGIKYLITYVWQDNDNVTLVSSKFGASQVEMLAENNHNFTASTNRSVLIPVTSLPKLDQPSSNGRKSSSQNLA

B1: wild type Nfp gene: wild type Medicago NFP LysM receptor transgene (SEQ ID NO: 1) (protein)
chain: MSAFFLPSSSHALFLVLMLFFLTNISAQPLYISETNFTCPVDSPPSCETYVAYRAQSPNFLSLSNISDIFNLSPLRIAKASNIEAEDKKLIPDQLLLVPVTCGCTKNHSFANITYSIKQGDNFFILSITSYQNLTNYLEFKNFNPNLSPTLLPLDTKVSVPLFCKCPSKNQLNKGIKYLITYVWQDNDNVTLVSSKFGASQVEMLAENNHNFTASTNRSVLIPVTSLPKLDQPSSNGRKSSSQNLALIIGISLGSAFFILVLTLSLVYVYCLKMKRLNRSTSSSETADKLLSGVSGYVSKPTMYEIDAIMEGTTNLSDNCKIGESVYKANIDGRVLAVKKIKKDASEELKILQKVNHGNLVKLMGVSSDNDGNCFLVYEYAENGSLEEWLFSESSKTSNSVVSLTWSQRITIAMDVAIGLQYMHEHTYPRIIHRDITTSNILLGSNFKAKIANFGMARTSTNSMMPKIDVFAFGVVLIELLTGKKAMTTKENGEVVILWKDFWKIFDLEGNREERLRKWMDPKLESFYPIDNALSLASLAVNCTADKSLSRPTIAEIVLCLSLLNQPSSEPMLERSLTSGLDAEATHVVTSVIAR
B2: NFP L147D L154D: double-mutated NFP, leucine residues L147 and L154 replaced with aspartate (protein, UniProt Q0GXS4 28-246, looked up, variant L147D L154D)
extracellular domain: T1 sequence (Q0GXS4 28-246) with L120D, L127D
modifications: extracellular domain
notes: double-mutated NFP, leucine residues L147 and L154 replaced with aspartate
B3: Q119F: NFP substitution variant outside the hydrophobic patch in LysM2 (protein, UniProt Q0GXS4 28-595, looked up, variant Q119F)
Serine/threonine …: QPLYISETNFTCPVDSPPSCETYVAYRAQSPNFLSLSNISDIFNLSPLRIAKASNIEAEDKKLIPDQLLLVPVTCGCTKNHSFANITYSIKFGDNFFILSITSYQNLTNYLEFKNFNPNLSPTLLPLDTKVSVPLFCKCPSKNQLNKGIKYLITYVWQDNDNVTLVSSKFGASQVEMLAENNHNFTASTNRSVLIPVTSLPKLDQPSSNGRKSSSQNLALIIGISLGSAFFILVLTLSLVYVYCLKMKRLNRSTSSSETADKLLSGVSGYVSKPTMYEIDAIMEGTTNLSDNCKIGESVYKANIDGRVLAVKKIKKDASEELKILQKVNHGNLVKLMGVSSDNDGNCFLVYEYAENGSLEEWLFSESSKTSNSVVSLTWSQRITIAMDVAIGLQYMHEHTYPRIIHRDITTSNILLGSNFKAKIANFGMARTSTNSMMPKIDVFAFGVVLIELLTGKKAMTTKENGEVVILWKDFWKIFDLEGNREERLRKWMDPKLESFYPIDNALSLASLAVNCTADKSLSRPTIAEIVLCLSLLNQPSSEPMLERSLTSGLDAEATHVVTSVIAR
B4: T216F: NFP substitution variant in LysM3 (protein, UniProt Q0GXS4 28-595, looked up, variant T216F)
Serine/threonine …: B3 Serine/threonine … with F92Q, T189F
B5: K141E: NFP substitution variant outside the hydrophobic patch in LysM2 (protein, UniProt Q0GXS4 28-595, looked up, variant K141E)
Serine/threonine …: B3 Serine/threonine … with F92Q, K114E
B6: T150H: NFP substitution variant outside the hydrophobic patch in LysM2 (protein, UniProt Q0GXS4 28-595, looked up, variant T150H)
Serine/threonine …: B3 Serine/threonine … with F92Q, T123H

Assays:
[1] = target: T1, Medicago NFP ectodomain (NFP-ECD, WT); experiment: Biolayer interferometry (BLI) binding of NFP-ECD to immobilized biotinylated ligands; conditions: for binding to NFP of mutated LCOs: FIG. 3B, Example 4; for reduction of binding to NFP-ECD compared to wild type S. meliloti LCO-IV: FIGS. 15D-15E
Protocol: (§1) Expression and purification of Medicago NFP ectodomain: The Medicago truncatula NFP ectodomain (residues 28-246) was codon-optimized for insect cell expression (Genscript, Piscataway, USA) and cloned into the pOET4 baculovirus transfer vector (Oxford Expression Technologies). The native NFP signal peptide (residues 1-27, predicted by SignalP 4.1) was replaced with the AcMNPV gp67 signal peptide to facilitate secretion and a hexa-histidine tag was added to the C-terminus. Point mutants of NFP were engineered using site-directed mutagenesis. Recombinant baculoviruses were produced in Sf9 cells (Spodoptera frugiperda) using the FlashBac Gold kit (Oxford Expression technologies) according to the manufacturer's instructions with Lipofectin (ThermoFisher Scientific) as a transfection reagent. Protein expression was performed as follows. Suspension-cultured Sf9 cells were maintained with shaking at 299 K in serum-free MAX-XP (BD-Biosciences, discontinued) or HyClone SFX (GE Healthcare) medium supplemented with 1% Pen-Strep (10000 U/ml, Life technologies) and 1% CD lipid concentrate (Gibco). Protein expression was induced by adding recombinant passage 3 virus once the Sf9 cells reached a cell density of 1.0*10^7^6 cells/ml. After 5-7 days of expression, medium supernatant containing NFP ectodomains was harvested by centrifugation. This was followed by an overnight dialysis step against 50 mM Tris-HCl pH 8, 200 mM NaCl at 277 K. The NFP ectodomain was enriched by two subsequent steps of Ni-IMAC purification (HisTrap excel/HisTrap HP, both GE Healthcare). For crystallography experiments, N-glycans were removed using the endoglycosidase PNGase F (1:15 (w/w), room temperature, overnight). As a final purification step, NFP ectodomain was purified by SEC on a Superdex 200 10/300 or HiLoad Superdex 200 16/600 (both GE Healthcare) in phosphate buffered saline at pH 7.2 supplemented to a total of 500 mM NaCl (for binding assays) or 50 mM Tris-HCl, 200 mM NaCl (for crystallography). NFP ectodomain elutes as a single, homogeneous peak corresponding to a monomer. Point mutated versions of NFP were expressed and purified following the same protocol.
(§2) Biolayer interferometry (BLI): Binding of NFP and mutated versions of NFP to ligands was measured on an Octet RED 96 system (Pall ForteBio). The ligands used were LCO-IV (from S. meliloti), LCO-V (from S. meliloti), LCO-V (from M. loti), and C06 (from M. loti). S. meliloti LCO consists of a tetrameric/pentameric N-acetylglucosamine backbone that is 0-sulfated on the reducing terminal residue, 0-acetylated on the non-reducing terminal residue, and mono-N-acylated by unsaturated C16 acyl groups. M. loti LCO is a pentameric N-acetylglucosamine with a cis-vaccenic acid and a carbamoyl group at the non-reducing terminal residue together with a 2,4-O-acetylfucose at the reducing terminal residue. Biotinylated ligand conjugates were immobilized on streptavidin biosensors (kinetic quality, Pall ForteBio) at a concentration of 125-250 nM for 5 minutes. The binding assays using the S. meliloti ligands (LCO-IV and LCO-V) were replicated seven times, while the binding assays using the M loti ligands (LCO-V and C06) were replicated six times. Data analysis was performed in GraphPad Prism 6 software (GraphPad Software, Inc.). Equilibrium dissociation constants derived from the steady-state were determined by applying a non-linear regression (one site, specific binding) to the response at equilibrium plotted against the protein concentration. Kinetic parameters were determined by non-linear regression (association followed by dissociation) on the subtracted data.
(§3) Mutated lipochitooligosaccharide (LCO) ligands: S. meliloti LCO consists of a tetrameric/pentameric N-acetylglucosamine backbone that is O-sulfated on the reducing terminal residue, O-acetylated on the non-reducing terminal residue, and mono-N-acylated by unsaturated C16 acyl groups. […]

[2] = target: T2, Medicago truncatula NFP ectodomain (NFP-ECD, residues 28-246), wild type, SEQ ID NO: 1 (Medicago truncatula, UniProt Q0GXS4); experiment: Biolayer interferometry (BLI) binding of NFP / NFP-ECD to immobilized LCO and CO ligands; conditions: for Binding of mutated LCOs to NFP (in words): ligand binding tests, FIG. 3B
T2 construct: The Medicago truncatula NFP ectodomain (residues 28-246); AcMNPV gp67 signal peptide (replaces native signal peptide 1-27) (N); hexa-histidine tag (C); made in house; host or cells: Sf9 cells (Spodoptera frugiperda), baculovirus
Protocol: as §1, §2, §3

[3] = test system: Medicago nfp mutants; experiment: Complementation assay (nodulation) by hairy root transformation; format: in vivo; conditions: for nodules per plant (complementation): 49 days after inoculation with S. meliloti strain 1021, FIG. 6A
Excerpt: Complementation assay: Construct assembly, plant growth conditions, hairy root transformations, nodulation and ROS assays were generally conducted as described in Bozsoki et al. (2017) (Bozsoki Z, Cheng J, Feng F, Gysel K, Vinther M, Andersen KR, Oldroyd G, Blaise M, Radutoiu S, Stougaard J (2017) Receptor-mediated chitin perception in legume roots is functionally separable from Nod factor perception. Proc Natl Acad Sci 114: E8118-E8127). The tested transgenes were the mutated LysM receptors described in Example 5. In addition, NFP substitution variants replacing residues outside the hydrophobic patch in LysM2 (Q119F, K141E and T150H) or in LysM3 (T216F) were tested.

Molecule	binding to NFP of mutated LCOs [1]	Binding of mutated LCOs to NFP (in words) [2]	nodules per plant (complementation) [3]	other results
CCCCCC/C=C\CCCCCCCCCC(=O)N[C@H]1[C@H](O[C@H]2[C@H](O)[C@@H](NC(C)=O)[C@H](O[C@H]3[C@H](O)[C@@H](NC(C)=O)[C@H](O[C@H]4[C@H](O)[C@@H](NC(C)=O)C(O)O[C@@H]4COS(=O)(=O)O)O[C@@H]3CO)O[C@@H]2CO)O[C@H](COC(C)=O)[C@@H](O)[C@@H]1O (stereo partly shown) [nodFE-LCO-IV]	reduced NFP binding	reduced NFP binding	–	NFP-ECD binding (BLI) ([1]; further BLI assays, FIGS. 15B-15E): no significant binding; Binding to NFP-ECD (in words) ([2]; further BLI assays, FIGS. 15B-15E, analyte 1.56-100 μM): no significant binding
CCCCCC/C=C\CCCCC/C=C/C(=O)N[C@H]1[C@H](O[C@H]2[C@H](O)[C@@H](NC(C)=O)[C@H](O[C@H]3[C@H](O)[C@@H](NC(C)=O)[C@H](O[C@H]4[C@H](O)[C@@H](NC(C)=O)C(O)O[C@@H]4CO)O[C@@H]3CO)O[C@@H]2CO)O[C@H](COC(C)=O)[C@@H](O)[C@@H]1O (stereo partly shown) [nodH-LCO-IV]	Dramatically reduced binding	Dramatically reduced binding	–	reduction of binding to NFP-ECD compared to wild type S. meliloti LCO-IV ([1]; BLI): more than 21 fold
CCCCCC/C=C\CCCCC/C=C/C(=O)N[C@H]1[C@H](O[C@H]2[C@H](O)[C@@H](NC(C)=O)[C@H](O[C@H]3[C@H](O)[C@@H](NC(C)=O)[C@H](O[C@H]4[C@H](O)[C@@H](NC(C)=O)C(O)O[C@@H]4COS(=O)(=O)O)O[C@@H]3CO)O[C@@H]2CO)O[C@H](CO)[C@@H](O)[C@@H]1O (stereo partly shown) [nodL-LCO-IV]	Dramatically reduced binding	Dramatically reduced binding	–	reduction of binding to NFP-ECD compared to wild type S. meliloti LCO-IV ([1]; BLI): more than 10 fold
CC(=O)N[C@H]1[C@H](O[C@H]2[C@H](O)[C@@H](NC(C)=O)[C@H](O[C@H]3[C@H](O)[C@@H](NC(C)=O)C(O)O[C@@H]3CO)O[C@@H]2CO)O[C@H](CO)[C@@H](O[C@@H]2O[C@H](CO)[C@@H](O[C@@H]3O[C@H](CO)[C@@H](O[C@@H]4O[C@H](CO)[C@@H](O)[C@H](O)[C@H]4NC(C)=O)[C@H](O)[C@H]3NC(C)=O)[C@H](O)[C@H]2NC(C)=O)[C@@H]1O (stereo partly shown) [M. loti C06]	–	–	–	NFP binding (BLI) ([1]; BLI, FIG. 2B, six replicates): not detected; also recorded: does not bind; Binding to NFP (in words) ([2]; BLI, FIG. 2B, six replicates): neither was NFP binding; also recorded: does not bind
B1	–	–	5 nodules per plant	–
B2	–	–	did not develop any nodules	complementation (nodulation) ([3]; S. medicae inoculation, 28 dpi, FIG. 6B): complements poorly
B3	–	–	did not affect nodulation	–
B4	–	–	did not affect nodulation	–
B5	–	–	did not affect nodulation	–
B6	–	–	did not affect nodulation	–
